The values below are quoted from earlier work in patent publication US12296046B2, “Micro-emulsion containing creatine fatty-ester, method for preparing said micro-emulsion and uses thereof” (COMMISSARIAT À L'ÉNERGIE ATOMIQUE ET AUX ÉNERGIES …, priority 2018, dated 2025).

Molecules are shown by their SMILES.

This data set concerns CrT−/y mice. As to conditions: 30 mg/kg, intracerebroventricular administration.

As for `CCCCCCCCCCCCOC(=O)CN(C)C(=N)N` [DCE, dodecyl creatine ester], the “performance in the object recognition task” value was “significantly improves the performance”.
